In one data set the target is T1, Human 5-lipoxygenase (Homo sapiens, UniProt P09917).
T1 construct: purchased Cayman 60402; host or cells: insect cells
T1 sequence (P09917 1-674): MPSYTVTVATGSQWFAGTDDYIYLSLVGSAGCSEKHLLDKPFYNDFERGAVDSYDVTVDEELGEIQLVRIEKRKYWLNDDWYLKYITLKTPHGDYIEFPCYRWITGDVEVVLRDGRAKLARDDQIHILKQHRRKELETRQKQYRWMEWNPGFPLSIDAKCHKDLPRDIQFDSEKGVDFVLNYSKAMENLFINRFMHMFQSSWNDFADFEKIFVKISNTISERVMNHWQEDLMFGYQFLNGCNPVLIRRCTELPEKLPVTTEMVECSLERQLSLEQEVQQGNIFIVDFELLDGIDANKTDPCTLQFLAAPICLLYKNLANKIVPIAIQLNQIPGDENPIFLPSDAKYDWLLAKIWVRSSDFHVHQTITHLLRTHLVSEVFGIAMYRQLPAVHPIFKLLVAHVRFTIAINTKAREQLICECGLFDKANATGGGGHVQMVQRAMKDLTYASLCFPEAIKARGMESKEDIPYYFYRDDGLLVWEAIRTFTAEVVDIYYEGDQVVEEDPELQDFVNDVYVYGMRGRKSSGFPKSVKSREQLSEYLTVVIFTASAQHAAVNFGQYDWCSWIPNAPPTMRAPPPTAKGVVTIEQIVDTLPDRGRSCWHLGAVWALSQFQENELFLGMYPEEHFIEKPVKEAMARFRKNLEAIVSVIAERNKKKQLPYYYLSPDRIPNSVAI
Put plainly: Activity of compounds against 5-LO enzyme (LTB4 measurement and/or fluorescence method). Format: biochemical. To be noted: for inhibition at 10 µM: 5-LO, single concentration of 10 uM in duplicate; for IC50: 6 or 11 point dose response in duplicate. The essentials:
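Two read-outs: LTB4 measured by EIA and/or LC/MS/MS with LTB4-d4 standard after 15 min RT compound preincubation with insect-cell 5-LO and a 5 min 37 °C reaction on 3 uM arachidonic acid (0.1 mM ATP, pH 7.4). The room-temperature fluorescence format used 20 uM H2DCFDA, 100 uM ATP, 3 uM arachidonic acid, 5 min; IC50 from 6/11-point curves.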

The melting point is the temperature of the solid-liquid transition. Broadly, the inhibition is the share of the control response that was lost under treatment. Read a low inhibition as a weak effect. In general, IC50 refers to the concentration that inhibits the measured activity by half. Higher therefore signals lower potency. In the case of `CCc1nc2ccccn2c1C(=O)NCc1ccc(OCc2ccc(OC(F)(F)F)cc2)cc1` [compound 207, 2-Ethyl-N-(4-(4-(trifluoromethoxy)benzyloxy)benzyl)imidazo[1,2-a]pyridine-3-carboxamide], the melting point is 138.7 °C. Further, at Human 5-lipoxygenase, the inhibition at 10 µM is more than 69% and the IC50 was in the range of 1000 to 20000 nM.

The compound `CCc1nc2cc(Cl)ccn2c1C(=O)NCc1ccc(N2CCC(Cc3ccccc3)CC2)cc1` [compound 208, N-(4-(4-Benzylpiperidin-1-yl)benzyl)-7-chloro-2-ethylimidazo[1,2-a]pyridine-3-carboxamide] returned a melting point of 63.8 °C. At Human 5-lipoxygenase, this compound returned an inhibition at 10 µM of more than 69% and an IC50 of 1000 to 20000 nM.

In turn, `CCc1nc2cc(Cl)ccn2c1C(=O)NCc1ccc(N2CCC(c3ccccc3)CC2)cc1` [compound 209, 7-Chloro-2-ethyl-N-(4-(4-phenylpiperidin-1-yl)benzyl)imidazo[1,2-a]pyridine-3-carboxamide] registered a melting point of 164.5 °C. Besides, the inhibition at 10 µM against Human 5-lipoxygenase was more than 69%.

Regarding `CCc1nc2ccc(Cl)cn2c1C(=O)NCc1ccc(N2CCC(c3ccccc3)CC2)cc1` [compound 210, 6-Chloro-2-ethyl-N-(4-(4-phenylpiperidin-1-yl)benzyl)imidazo[1,2-a]pyridine-3-carboxamide], the melting point was found to be 138.2 °C. The compound further had an inhibition at 10 µM at Human 5-lipoxygenase of 40 to 69%.

In turn, `CCC1=C(C(=O)NCc2ccc(N3CCC(C)(C)CC3)cc2)N2C=CC(Cl)=CC2N1` (centres unmarked) [compound 211, 7-Chloro-N-(4-(4,4-dimethylpiperidin-1-yl)benzyl)-2-ethyl-1,8a-dihydroimidazo[1,2-a]pyridine-3-carboxamide] registered a melting point of 121.3 °C. Moreover, at Human 5-lipoxygenase, the inhibition at 10 µM was more than 69% and the IC50 was 1000 to 20000 nM.

`CCc1nc2cc(Cl)ccn2c1C(=O)NCc1ccc(N2CCC(CO)CC2)cc1` [compound 212, 7-Chloro-2-ethyl-N-(4-(4-(hydroxymethyl)piperidin-1-yl)benzyl)imidazo[1,2-a]pyridine-3-carboxamide]: the melting point is 179.8 °C. On Human 5-lipoxygenase, this compound returned an inhibition at 10 µM of less than 40%.

In the case of `CCc1nc2ccc(Cl)cn2c1C(=O)NCc1ccc(N2CCC(COc3ccc(OC(F)(F)F)cc3)CC2)cc1` [compound 213, 6-chloro-2-ethyl-N-(4-(4-((4-(trifluoromethoxy)phenoxy)methyl)piperidin-1-yl)benzyl)imidazo[1,2-a]pyridine-3-carboxamide], the melting point is 183.6 °C. The same compound showed an inhibition at 10 µM against Human 5-lipoxygenase of less than 40%.

The compound `CCc1nc2cc(Cl)ccn2c1C(=O)NCc1ccc(N2CCC(COc3ccc(OC(F)(F)F)cc3)CC2)cc1` [compound 214, 7-Chloro-2-ethyl-N-(4-(4-((4-(trifluoromethoxy)phenoxy)methyl)piperidin-1-yl)benzyl)imidazo[1,2-a]pyridine-3-carboxamide] showed a melting point of 189.5 °C. Besides, the inhibition at 10 µM against Human 5-lipoxygenase is less than 40%.

Take `CCc1nc2cc(Cl)ccn2c1C(=O)NCc1ccc(NCc2ccc(OC(F)(F)F)cc2)cc1` [compound 215, 7-Chloro-2-ethyl-N-(4-((4-(trifluoromethoxy)benzyl)amino)benzyl)imidazo[1,2-a]pyridine-3-carboxamide]: the melting point is 169.6 °C. The same compound showed an inhibition at 10 µM on Human 5-lipoxygenase of 40 to 69%.

On to `C=C1CCN(c2ccc(CNC(=O)c3c(CC)nc4cc(Cl)ccn34)cc2)CC1` [compound 218, 7-Chloro-2-ethyl-N-(4-(4-methylenepiperidin-1-yl)benzyl)imidazo[1,2-a]pyridine-3-carboxamide], for which the melting point turned out to be 168.3 °C. This compound also gave an inhibition at 10 µM on Human 5-lipoxygenase of 40 to 69%.

As for `CCc1nc2cc(C)ccn2c1C(=O)NCc1ccc(Oc2ccc(OC(F)(F)F)cc2)cc1` [compound 219, 2-Ethyl-7-methyl-N-(4-(4-(trifluoromethoxy)phenoxy)benzyl)imidazo[1,2-a]pyridine-3-carboxamide], the melting point is 133.6 °C. At Human 5-lipoxygenase, this compound gave an inhibition at 10 µM of more than 69% and an IC50 of less than 1000 nM.
